Usually pIC50 stands for the negative decadic logarithm of the IC50, by convention in mol/L.

pIC50: −log10 of the molar value.

Experiment [1] has as its target T1, recombinant human ACC1 (acetyl-CoA carboxylase 1) (Homo sapiens, UniProt Q13085).
T1 construct: NM_198834, amino acids 39—end; FLAG (C); made in house; host or cells: baculovirus-transfected insect cells (Hi5)
The experiment can be described thus: Human ACC1 enzyme assay (HTRF ADP detection).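 Note: ADP by-product quantified by competitive HTRF immunoassay with europium cryptate anti-ADP antibody and d2-labelled ADP, read after 1 h binding at 22 °C, enzyme near 2.5 ng/µl.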 The following applies: 50 μM ATP, 20 μM acetyl-CoA, 15 min pre-incubation, 20 min at 22° C.; read-out: ACC 1 IC50. The class given is biochemical. Background: Time-resolved FRET reads energy transfer from a long-lived donor to a nearby acceptor.
Experimental: The basic principle of the assay is the measurement of adenosine diphosphate (ADP), which is formed as a by-product, by means of an HTRF®-based competitive immunoassay (HTRF=Homogeneous Time Resolved Fluorescence).
The amount of complex of d2-labelled ADP and europium cryptate-labelled anti-ADP antibody was then determined by measuring the resonance energy transfer of europium cryptate to d2.

Experiment [2] has as its target T2, ACC2 (acetyl-CoA carboxylase 2) (Homo sapiens, UniProt O00763).
T2 construct: catalogue no; 50201, amino acids 39—end, expressed in baculovirus-transfected Sf9 insect cells; His (C); purchased BPS Bioscience (San Diego, Calif.) 50201; host or cells: baculovirus-transfected Sf9 insect cells
The experiment can be described thus: Human ACC2 enzyme assay (HTRF ADP detection). The class given is biochemical. The following applies: 20 μM acetyl-CoA, 15 min pre-incubation, 20 min at 22° C.; read-out: ACC 2 IC50.

T2 sequence (O00763 39-2458 limits assumed): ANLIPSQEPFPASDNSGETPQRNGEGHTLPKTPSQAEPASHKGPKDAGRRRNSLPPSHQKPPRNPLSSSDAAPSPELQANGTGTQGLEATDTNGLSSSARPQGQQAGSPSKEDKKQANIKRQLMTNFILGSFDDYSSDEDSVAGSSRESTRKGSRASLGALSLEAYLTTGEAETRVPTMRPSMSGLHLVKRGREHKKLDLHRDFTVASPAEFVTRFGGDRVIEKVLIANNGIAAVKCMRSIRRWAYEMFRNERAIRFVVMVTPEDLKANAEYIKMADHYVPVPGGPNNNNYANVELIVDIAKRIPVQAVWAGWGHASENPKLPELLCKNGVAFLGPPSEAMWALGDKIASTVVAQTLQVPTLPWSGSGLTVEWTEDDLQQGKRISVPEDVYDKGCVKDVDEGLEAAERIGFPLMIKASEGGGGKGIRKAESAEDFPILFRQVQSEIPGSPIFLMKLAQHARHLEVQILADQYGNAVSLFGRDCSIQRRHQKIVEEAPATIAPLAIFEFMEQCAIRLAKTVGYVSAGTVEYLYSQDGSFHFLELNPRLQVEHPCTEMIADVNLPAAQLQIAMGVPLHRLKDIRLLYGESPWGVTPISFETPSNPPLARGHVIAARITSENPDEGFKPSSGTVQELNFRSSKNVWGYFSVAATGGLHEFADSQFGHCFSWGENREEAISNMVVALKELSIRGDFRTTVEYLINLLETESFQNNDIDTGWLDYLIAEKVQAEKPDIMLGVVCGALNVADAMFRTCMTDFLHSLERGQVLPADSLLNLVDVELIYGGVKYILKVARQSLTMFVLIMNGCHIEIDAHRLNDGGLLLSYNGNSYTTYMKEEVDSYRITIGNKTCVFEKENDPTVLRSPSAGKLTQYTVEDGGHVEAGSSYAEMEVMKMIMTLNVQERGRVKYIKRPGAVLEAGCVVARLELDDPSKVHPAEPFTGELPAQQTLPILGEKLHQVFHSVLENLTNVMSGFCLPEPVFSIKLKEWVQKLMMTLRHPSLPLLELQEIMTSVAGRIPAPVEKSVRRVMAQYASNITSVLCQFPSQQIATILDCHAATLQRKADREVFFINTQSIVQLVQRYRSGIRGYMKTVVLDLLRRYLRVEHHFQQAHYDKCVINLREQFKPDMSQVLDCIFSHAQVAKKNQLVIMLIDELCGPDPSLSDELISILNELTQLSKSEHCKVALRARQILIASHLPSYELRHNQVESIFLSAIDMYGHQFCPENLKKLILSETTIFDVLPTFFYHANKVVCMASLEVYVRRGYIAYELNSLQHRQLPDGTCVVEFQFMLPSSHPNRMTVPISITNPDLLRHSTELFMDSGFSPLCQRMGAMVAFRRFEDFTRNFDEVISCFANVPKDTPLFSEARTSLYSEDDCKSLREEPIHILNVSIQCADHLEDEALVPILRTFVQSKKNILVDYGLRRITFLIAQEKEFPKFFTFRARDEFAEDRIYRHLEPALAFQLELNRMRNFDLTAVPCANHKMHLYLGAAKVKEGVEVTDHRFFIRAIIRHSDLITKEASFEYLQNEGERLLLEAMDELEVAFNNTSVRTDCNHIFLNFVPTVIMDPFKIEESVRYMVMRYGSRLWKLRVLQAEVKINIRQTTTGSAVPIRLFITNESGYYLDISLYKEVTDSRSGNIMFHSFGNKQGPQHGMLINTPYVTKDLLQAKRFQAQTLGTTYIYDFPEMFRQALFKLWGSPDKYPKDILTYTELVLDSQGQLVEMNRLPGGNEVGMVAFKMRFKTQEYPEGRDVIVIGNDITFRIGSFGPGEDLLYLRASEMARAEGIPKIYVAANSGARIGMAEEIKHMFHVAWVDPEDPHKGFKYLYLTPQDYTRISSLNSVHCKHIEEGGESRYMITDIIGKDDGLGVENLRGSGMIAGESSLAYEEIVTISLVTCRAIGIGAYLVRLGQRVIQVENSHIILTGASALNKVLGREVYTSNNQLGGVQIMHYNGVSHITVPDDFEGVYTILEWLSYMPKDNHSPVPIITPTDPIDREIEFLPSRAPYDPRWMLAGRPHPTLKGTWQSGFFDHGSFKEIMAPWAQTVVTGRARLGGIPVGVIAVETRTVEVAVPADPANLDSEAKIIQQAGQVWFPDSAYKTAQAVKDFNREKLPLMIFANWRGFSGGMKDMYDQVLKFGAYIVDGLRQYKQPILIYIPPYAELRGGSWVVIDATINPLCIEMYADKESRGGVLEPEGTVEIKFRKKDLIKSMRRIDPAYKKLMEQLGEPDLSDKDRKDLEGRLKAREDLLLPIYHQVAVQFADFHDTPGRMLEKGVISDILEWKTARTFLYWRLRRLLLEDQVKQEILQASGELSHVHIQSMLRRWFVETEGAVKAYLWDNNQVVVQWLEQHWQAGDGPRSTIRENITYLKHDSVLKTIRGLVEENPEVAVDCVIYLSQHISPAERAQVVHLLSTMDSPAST

Turning to `Cc1ccc(-c2ccc(Cl)cc2)cc1C1=C(O)[C@@]2(CC[C@H](OCC(C)C)C2)NC1=O` (relative stereo) [Example 1-49, rel-(5R,7R)-3-(4′-chloro-4-methylbiphenyl-3-yl)-4-hydroxy-7-(2-methylpropoxy)-1-azaspiro[4.4]non-3-en-2-one], the pIC50 is 6.62 in experiment [1] and 5.00 in experiment [2].
In the same order, the values of `CCOCCO[C@@H]1CC[C@@]2(C1)NC(=O)C(c1cc(-c3ccc(Cl)cc3)ccc1C)=C2O` (relative stereo) [Example 1-50, rel-(5R,7S)-3-(4′-chloro-4-methylbiphenyl-3-yl)-7-(2-ethoxyethoxy)-4-hydroxy-1-azaspiro[4.4]non-3-en-2-one] are 6.33 and 5.20.
For `COCCO[C@@H]1CCC[C@]2(C1)NC(=O)C(c1cc(-c3ccc(Cl)cc3)ccc1Cl)=C2O` (relative stereo) [Example 1-74, rel-(5R,7R)-3-(4,4′-dichlorobiphenyl-3-yl)-4-hydroxy-7-(2-methoxyethoxy)-1-azaspiro[4.5]dec-3-en-2-one], in that order: 6.18 and 4.78.
In the same order, the values of `Cc1ccc(-c2ccc(Cl)cc2)c(C)c1C1=C(O)C2(CCOCC2)NC1=O` [Example 1-1, 3-(4′-chloro-2,4-dimethylbiphenyl-3-yl)-4-hydroxy-8-oxa-1-azaspiro[4.5]dec-3-en-2-one] are 6.34 and 5.06.
As for `CO[C@H]1CC[C@]2(CC1)NC(=O)C(c1cc(-c3ccc(Cl)cc3)ccc1C)=C2O` [Example 1-2, (5s,8s)-3-(4′-chloro-4-methylbiphenyl-3-yl)-4-hydroxy-8-methoxy-1-azaspiro[4.5]dec-3-en-2-one], the results for the pIC50 in experiment [1] and in experiment [2] were […] and […], respectively.
For `Cc1ccc(-c2ccc(Cl)cc2)cc1C1=C(O)C2(CCOC(C)C2)NC1=O` (stereo not drawn) [Example 1-3, 3-(4′-chloro-4-methylbiphenyl-3-yl)-4-hydroxy-7-methyl-8-oxa-1-azaspiro[4.5]dec-3-en-2-one], in that order: 6.35 and 5.27.
For `Cc1ccc(-c2ccc(Cl)cc2)c(C)c1C1=C(O)C2(CCC(C)CC2)NC1=O` (stereo not drawn) [Example 1-4, 3-(4′-chloro-2,4-dimethylbiphenyl-3-yl)-4-hydroxy-8-methyl-1-azaspiro[4.5]dec-3-en-2-one], in that order: 6.34 and 6.48.
As for `Cc1ccc(-c2ccc(Cl)cc2)cc1C1=C(O)C2(CCCOC2)NC1=O` (stereo not drawn) [Example 1-5, 3-(4′-chloro-4-methylbiphenyl-3-yl)-4-hydroxy-7-oxa-1-azaspiro[4.5]dec-3-en-2-one], the pIC50 in experiment [1] was 6.54; in experiment [2] it was 5.08.
For `Cc1ccc(-c2ccc(Cl)cc2)cc1C1=C(O)C2(CCOCC2)NC1=O` [Example 1-6, 3-(4′-chloro-4-methylbiphenyl-3-yl)-4-hydroxy-8-oxa-1-azaspiro[4.5]dec-3-en-2-one], in that order: 6.52 and 5.28.
For `COC1CCC2(CC1)NC(=O)C(c1cc(-c3ccc(Cl)cc3)c(C)cc1C)=C2O` (stereo not drawn) [Example 1-7, 3-(4′-chloro-4,6-dimethylbiphenyl-3-yl)-4-hydroxy-8-methoxy-1-azaspiro[4.5]dec-3-en-2-one], in that order: 5.77 and 7.06.
In the same order, the values of `Cc1cc(C)c(-c2ccc(Cl)cc2)cc1C1=C(O)C2(CCCOC2)NC1=O` (stereo not drawn) [Example 1-8, 3-(4′-chloro-4,6-dimethylbiphenyl-3-yl)-4-hydroxy-7-oxa-1-azaspiro[4.5]dec-3-en-2-one] are 6.10 and 6.09.
Consider `COC1CCC2(CC1)NC(=O)C(c1c(C)cc(C)c(-c3ccc(Cl)cc3)c1C)=C2O` (stereo not drawn) [Example 1-9, 3-(4′-chloro-2,4,6-trimethylbiphenyl-3-yl)-4-hydroxy-8-methoxy-1-azaspiro[4.5]dec-3-en-2-one], for which the pIC50 in experiment [1] is 4.78; in experiment [2], 6.20.
In the same order, the values of `Cc1ccc(-c2ccc(Cl)cc2)c(C)c1C1=C(O)C2(CCCOC2)NC1=O` (stereo not drawn) [Example 1-10, 3-(4′-chloro-2,4-dimethylbiphenyl-3-yl)-4-hydroxy-7-oxa-1-azaspiro[4.5]dec-3-en-2-one] are 6.26 and 5.19.
With `COC1CCC2(CC1)NC(=O)C(c1cc(-c3ccc(Cl)cc3)ccc1Cl)=C2O` (stereo not drawn) [Example 1-11, 3-(4,4′-dichlorobiphenyl-3-yl)-4-hydroxy-8-methoxy-1-azaspiro[4.5]dec-3-en-2-one], the pIC50 was 6.62 in experiment [1] and 6.00 in experiment [2].
For `Cc1ccc(-c2ccc(C(F)(F)F)cc2)cc1C1=C(O)C2(CCCCC2)NC1=O` [Example 1-12, 4-hydroxy-3-[4-methyl-4′-(trifluoromethyl)biphenyl-3-yl]-1-azaspiro[4.5]dec-3-en-2-one], in that order: 6.11 and 4.74.
Consider `Cc1ccc(-c2ccc(C)c(C3=C(O)C4(CCCCC4)NC3=O)c2)cc1` [Example 1-13, 3-(4,4′-dimethylbiphenyl-3-yl)-4-hydroxy-1-azaspiro[4.5]dec-3-en-2-one], for which the pIC50 in experiment [1] is 6.45; in experiment [2], 4.72.
In the same order, the values of `Cc1ccc(-c2ccc(C)c(C3=C(O)C4(CCCOC4)NC3=O)c2)cc1` (stereo not drawn) [Example 1-14, 3-(4,4′-dimethylbiphenyl-3-yl)-4-hydroxy-7-oxa-1-azaspiro[4.5]dec-3-en-2-one] are 6.00 and less than 4.70.
In the same order, the values of `Cc1ccc(-c2ccc(C)c(C3=C(O)C4(CCOCC4)NC3=O)c2)cc1` [Example 1-15, 3-(4,4′-dimethylbiphenyl-3-yl)-4-hydroxy-8-oxa-1-azaspiro[4.5]dec-3-en-2-one] are 6.13 and less than 4.70.
For the compound `Cc1ccc(-c2ccc(Cl)cc2)cc1C1=C(O)CN(C)C1=O` [Example 1-16, 3-(4′-chloro-4-methylbiphenyl-3-yl)-4-hydroxy-1-methyl-1,5-dihydro-2H-pyrrol-2-one], the pIC50 in experiment [1] is 6.48; in experiment [2], less than 4.70.
`Cc1ccc(-c2ccc(Cl)cc2)cc1C1=C(O)CN(C(C)C)C1=O` [Example 1-17, 3-(4′-chloro-4-methylbiphenyl-3-yl)-4-hydroxy-1-(propan-2-yl)-1,5-dihydro-2H-pyrrol-2-one]: the values for the pIC50 in experiment [1] and in experiment [2] were 6.48 and 5.40, respectively.
Regarding `Cc1ccc(-c2ccc(Cl)cc2)cc1C1=C(O)CN(C2CC2)C1=O` [Example 1-18, 3-(4′-chloro-4-methylbiphenyl-3-yl)-1-cyclopropyl-4-hydroxy-1,5-dihydro-2H-pyrrol-2-one], the results for the pIC50 in experiment [1] and in experiment [2] were 6.10 and 5.12, respectively.
Take `Cc1ccc(-c2ccc(Cl)cc2)cc1C1=C(O)C(C)N(C(C)C)C1=O` (stereo not drawn) [Example 1-19, 3-(4′-chloro-4-methylbiphenyl-3-yl)-4-hydroxy-5-methyl-1-(propan-2-yl)-1,5-dihydro-2H-pyrrol-2-one]: the pIC50 in experiment [1] is 6.06; in experiment [2], 5.16.
For `Cc1ccc(-c2ccc(Cl)cc2)cc1C1=C(O)C2(CCC(C)(C)CC2)NC1=O` [Example 1-20, 3-(4′-chloro-4-methylbiphenyl-3-yl)-4-hydroxy-8,8-dimethyl-1-azaspiro[4.5]dec-3-en-2-one], in that order: 6.62 and 6.67.
For `Cc1ccc(-c2ccc(Cl)cc2)cc1C1=C(O)C2CSCCN2C1=O` (stereo not drawn) [Example 1-21, 7-(4′-chloro-4-methylbiphenyl-3-yl)-8-hydroxy-1,3,4,8a-tetrahydro-6H-pyrrolo[2,1-c][1,4]thiazin-6-one], the values for the pIC50 in experiment [1] and in experiment [2] were 6.27 and 4.82, respectively.
As to `Cc1ccc(-c2ccc(Cl)cc2)cc1C1=C(O)CN(C2CCCCC2)C1=O` [Example 1-22, 3-(4′-chloro-4-methylbiphenyl-3-yl)-1-cyclohexyl-4-hydroxy-1,5-dihydro-2H-pyrrol-2-one], the results for the pIC50 in experiment [1] and in experiment [2] were 6.01 and 6.16, respectively.
In the case of `Cc1ccc(-c2ccc(Cl)cc2)c(C)c1C1=C(O)C2(CCC3(CC2)OCC(C)O3)NC1=O` (stereo not drawn) [Example 1-62, 11-(4′-chloro-2,4-dimethylbiphenyl-3-yl)-12-hydroxy-2-methyl-1,4-dioxa-9-azadispiro[4.2.4.2]tetradec-11-en-10-one], the pIC50 in experiment [1] is 6.16.
Consider `COC1CCC2(CC1)NC(=O)C(c1cc(-c3ccc(Cl)c(Cl)c3)ccc1C)=C2O` (stereo not drawn) [Example 1-81, 3-(3′,4′-dichloro-4-methylbiphenyl-3-yl)-4-hydroxy-8-methoxy-1-azaspiro[4.5]dec-3-en-2-one], for which the pIC50 in experiment [2] was 5.85.
With `Cc1ccc(-c2ccc(Cl)cc2)cc1C1=C(O)C2(CC2)NC1=O` [Example 1-84, 6-(4′-chloro-4-methylbiphenyl-3-yl)-7-hydroxy-4-azaspiro[2.4]hept-6-en-5-one], the pIC50 in experiment [1] is 6.34.
For the compound `CCCC1CCC2(CC1)OC(=O)C(c1cc(-c3ccc(Cl)cc3)ccc1C)=C2O` (stereo not drawn) [Example 2-36, 3-(4′-chloro-4-methylbiphenyl-3-yl)-4-hydroxy-8-propyl-1-oxaspiro[4.5]dec-3-en-2-one], the pIC50 in experiment [2] was 5.71.
For `COC1CCC2(CC1)SC(=O)C(c1cc(-c3ccc(Cl)cc3)ccc1C)=C2O` (stereo not drawn) [Example 3-1, 3-(4′-chloro-4-methylbiphenyl-3-yl)-4-hydroxy-8-methoxy-1-thiaspiro[4.5]dec-3-en-2-one], in experiment [1], the pIC50 is 6.07.
Regarding `Cc1ccc(-c2ccc(Cl)c(Cl)c2)cc1-c1c(O)c2ccc(Cl)cc2[nH]c1=O` [Example 9-7, 7-chloro-3-(3′,4′-dichloro-4-methylbiphenyl-3-yl)-4-hydroxyquinolin-2(1H)-one], in experiment [2], the pIC50 was 5.08.
Regarding `Cc1cc(C)c(-c2c(O)c3ccc(Cl)cc3[nH]c2=O)cc1-c1ccc(Cl)cc1` [Example 9-12, 7-chloro-3-(4′-chloro-4,6-dimethylbiphenyl-3-yl)-4-hydroxyquinolin-2(1H)-one], the pIC50 in experiment [1] was 6.24.

(Values after patent US20120129833A1, “CYCLIC KETOENOLS FOR THERAPY” (BAYER PHARMA AKTIENGESELLSCHAFT, priority 2010, published 2012).)
